From patent US20190352358A1, “COMPOUNDS, COMPOSITIONS AND USES THEREOF FOR IMPROVEMENT OF BONE DISORDERS” (ALIZE PHARMA III SAS, priority 2017, published 2019)
Residues, ends and D or L forms follow the SMILES beside them. *: point of attachment. Stearoyl = CCCCCCCCCCCCCCCCCC(=O)*

Legend:
[1] = system: MC-3T3 E1 clone 4 (CL4) osteoblast cells; test: Osteocalcin expression during in vitro osteoblast differentiation, acylated and cyclic analogs (Example 7); type: cell-based; conditions: Table 18; test peptide 1 μg/L; 18-21 day interval
Method: (§1) Each acylated peptide was tested in a biologic assay measuring its ability to stimulate differentiation of osteoblast cells over a 18-21 day interval as assessed by the stimulation of osteocalcin protein synthesis. MC-3T3 E1 clone 4 (CL4) osteoblast cells were obtained from ATCC (Manassas, Va., USA). Cells were cultured in α-MEM containing 10% fetal bovine serum (FBS; Thermo Fisher Scientific, Pittsburgh, Pa., USA). After confluency, culture medium was changed to differentiation medium (DM), which contained 10% FBS plus 50 μg/mL ascorbic acid and 4 mM β-glycerol phosphate, with or without a test peptide (1 μg/L). Fresh DM, with or without test peptide, was applied every 72 hours. The cell monolayers were lysed in a modified radioimmunoprecipitation assay (RIPA) buffer. Total cellular protein in the lysates was determined using BCA (Thermo Fisher Scientific, Rockford, Ill., USA). Cell proteins are separated on SDS-PAGE gel and transferred on PVDF membrane for analysis. Osteocalcin detection was performed using anti-osteocalcin antibody at 1:200 dilution (Santa Cruz Biotechnology, Inc, Santa Cruz, Calif., USA) and visualized using enhanced chemiluminescence (Thermo Fisher Scientific, Rockford, Ill., USA).
In a separate experiment, the effect of cyclization was examined on of the HBD1 (3-11) peptide. The cyclic HBD1 (3-11) was synthetized and tested on the in vitro osteoblast differentiation assay.

[2] = system: MC-3T3 E1 clone 4 (CL4) osteoblast cells; test: Osteocalcin expression during in vitro osteoblast differentiation, various doses of analogs (Example 8); type: cell-based; conditions: Table 19, 18 day interval
Method: as §1, with “The peptides were” for “Each acylated peptide was”, “tested at different concentrations” for “tested”, “their” for “its”, “18” for “18-21”, “an ascending dose of the peptide.” for “a test peptide (1 μg/L).”, “the” for “test”

[3] = Stability of HBD1 fragments in human plasma; type: in vitro ADME
Method: The peptides were spiked at 1 μg/mL (peptide backbone) into pre-warmed human K2EDTA plasma (at 37° C.) and incubated for up to 48 hours. Aliquots of plasma were extracted at specific time points (0, 24 and 48 hours post spike). Extraction was performed with acetonitrile:water (75:25, v/v) for HBD1 (1-13), HBD1 (1-13) with palmitic acid at the N-terminus (C16:0), HBD1 (3-11) with palmitic acid at the N-terminus (C16:0)) and HBD1 (3-11) with stearic acid at the N-terminus (C18:0) or with acetonitrile:water:formic acid (75:25:0.1, v/v/v) for HBD1 (3-11) and cyclic HBD1 (3-11). The peptides were analyzed using developed LC (C18 reverse phase column)—positive ion electrospray MS/MS methods specific to each peptide. The peak area at each time point was expressed as a percentage of the value obtained for the t=0 minutes time point.

[4] = Pharmacokinetics of acylated analogs in male Sprague Dawley rats after subcutaneous injection (Example 11); type: in vivo; design: AUC(0-t): concentration or dose not given beside the values; conditions: sc, rat, Table 24
Method: The peptides were reconstituted in saline (0.9% NaCl). Three male Sprague Dawley rats (approximately 6 weeks of age) were used per group. Subcutaneous doses were administered into the right flank of each animal […]. Following dosing, serial whole blood samples (ca. 0.3 mL) were collected from retro-orbital sinus into K2EDTA treated containers. Following each blood sample collection, samples were placed into a cooling block at 4° C. Samples were collected prior to dosing then at 15 and 30 minutes then 1, 2, 4, 6, 8 and 24 hours post dose for subcutaneous injection. Blood samples were centrifuged at 3500×rpm for 10 minutes at 4° C. and resultant plasma aspirated off into clean fully, labelled tubes. Plasma samples were snap frozen following aspiration then stored at −80° C. The peptides were extracted with acetonitrile:water (75:25, v/v) and analyzed using developed LC-MS/MS methods as described in Example 9. The limits of detection of these methods are 0.003 nmol/mL for HBD1 (1-13) with palmitic acid at the N-terminus (C16:0), 0.0008 nmol/mL for HBD1 (3-11) with palmitic acid at the N-terminus (C16:0), 0.0070 nmol/mL for HBD1 (3-11) with stearic acid at the N-terminus (C18:0), and 0.0015 nmol/mL for HBD1 (3-11) with myristic acid at the N-terminus (C14:0), HBD1 (3-11) with arachidic acid at the N-terminus (C20:0), HBD1 (3-11) with palmitic diacid at the N-terminus (C16:0-diacid), HBD1 (3-11) with palmitic acid at the C-terminus (C16:0). All values below these limits of quantification were considered as zero.

CCCCCCCCCCCCCCCCCC(=O)N[C@@H](Cc1c[nH]cn1)C(=O)N[C@@H](CC(C)C)C(=O)NCC(=O)N[C@@H](CC(C)C)C(=O)N[C@@H](CCC(=O)O)C(=O)N[C@@H](CCC(=O)O)C(=O)N1CCC[C@H]1C(=O)N[C@@H](CCCCN)C(=O)N[C@@H](CCCCN)C(=O)O [compound 73] (Stearoyl-HLGLEEPKK-OH)
Fold increase vs DM ± SE [1]: 2.93 ± 0.16 fold
Fold increase vs DM ± SD ([2]; dose 1.0 μM): 3.46 ± 0.47 fold
Fold increase vs DM ± SD ([2]; dose 2.0 μM): 4.48 ± 0.07 fold
Fold increase vs DM ± SD ([2]; dose 3.0 μM): 5.66 ± 0.45 fold
stability in human plasma (in words) ([3]; 24 and 48 hours incubation at 37° C.): similar
remaining at 24 h, 1 μg/mL ([3]; human, human K2EDTA plasma, spiked at 1 μg/mL, 37° C., 24 hours, read-out: Remaining parent peptide in human plasma 24 hours post spike): 89%
remaining at 48 h, 1 μg/mL ([3]; human, human K2EDTA plasma, spiked at 1 μg/mL, 37° C., 48 hours, read-out: Remaining parent peptide in human plasma 48 hours post spike): 91%
AUC(0-t) ([4]; male, Sprague Dawley, plasma): 4.81 µM·h
Cmax ([4]; male, Sprague Dawley, plasma): 540 nM
Tmax ([4]; male, Sprague Dawley, plasma): 4 h
Tlast (last time point with detectable peptide) [4]: 8 h
